pIC50, pKd, pKi: −log10 of the molar value. ≈ marks a conversion by molar mass, not a printed value. Residues, ends and D or L forms follow the SMILES beside them.
Legend:
[1] = target: Human immunodeficiency virus type 1 reverse transcriptase (Human immunodeficiency virus 1, UniProt Q72547); assay: Binding affinity to HIV-1 reverse transcriptase assessed as dissociation constant
[2] = target: C-X-C chemokine receptor type 4 (Homo sapiens, UniProt P61073); assay: Displacement of 125I-CXCL12 from CXCR4 in human CCRF-CEM cells by competitive binding assay; type: cell-based
C-X-C chemokine receptor type 4, sequence (P61073 whole entry): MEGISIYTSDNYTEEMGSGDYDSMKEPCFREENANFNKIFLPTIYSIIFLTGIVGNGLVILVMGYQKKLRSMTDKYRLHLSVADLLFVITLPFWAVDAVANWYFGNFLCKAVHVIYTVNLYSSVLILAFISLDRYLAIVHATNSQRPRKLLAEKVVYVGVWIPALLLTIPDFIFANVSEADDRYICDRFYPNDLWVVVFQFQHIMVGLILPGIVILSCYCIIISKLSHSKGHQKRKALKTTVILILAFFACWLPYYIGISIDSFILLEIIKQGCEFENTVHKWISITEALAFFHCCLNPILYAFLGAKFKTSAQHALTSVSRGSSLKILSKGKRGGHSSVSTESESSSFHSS

[3] = Binding affinity to Aplysia californica Y55W Acetylcholine-binding protein assessed as dissociation constant
[4] = Binding affinity to Aplysia californica Acetylcholine-binding protein assessed as dissociation constant
[5] = target: Acetylcholine-binding protein (Lymnaea stagnalis, UniProt P58154); assay: Binding affinity to Lymnaea stagnalis Acetylcholine-binding protein assessed as dissociation constant
Acetylcholine-binding protein, sequence (P58154 whole entry): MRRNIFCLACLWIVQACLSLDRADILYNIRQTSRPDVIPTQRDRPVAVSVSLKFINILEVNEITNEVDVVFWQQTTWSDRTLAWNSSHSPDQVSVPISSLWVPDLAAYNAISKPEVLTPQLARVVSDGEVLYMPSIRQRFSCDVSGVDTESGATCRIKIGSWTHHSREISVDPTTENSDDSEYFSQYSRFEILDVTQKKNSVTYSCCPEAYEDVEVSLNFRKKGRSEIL

Histone deacetylase = assay: Inhibition of HDAC extracted from human HeLa cell nuclear extract by fluorescence assay; type: subcellular, Nucleus
EMT6 [6] = assay: Anticancer activity against mouse EMT6 cells assessed as reduction in cell viability incubated for 48 hrs by XTT assay; type: functional, cell-based; conditions: EMT6, 48 h
SW480 = assay: Anticancer activity against human SW480 cells assessed as reduction in cell viability incubated for 48 hrs by XTT assay; type: functional, cell-based; conditions: SW480, 48 h
HeLa = assay: Cytostatic activity against human HeLa cells measured for 72 hrs; type: functional; conditions: read-out: ED50 (the source's name)
[7] = Inhibition of bovine pancrease trypsin-catalyzed proteolysis of chromogenic substrate Boc-QAR-pNA; set-up: species or system Bos taurus
A549 = assay: Cytotoxicity against human A549 cells assessed as reduction in cell viability incubated for 24 hrs by MTT assay; type: functional, cell-based; conditions: A549, 24 h
MDA-MB-231 = assay: Cytotoxicity against human MDA-MB-231 cells assessed as reduction in cell viability incubated for 24 hrs by MTT assay; type: functional, cell-based; conditions: MDA-MB-231, 24 h
HepG2 = assay: Cytotoxicity against human HepG2 cells assessed as reduction in cell viability incubated for 24 hrs by MTT assay; type: functional, cell-based; conditions: HepG2, 24 h
[8] = Binding affinity to c-Abl (unknown origin) assessed as inhibition constant by fluorescence based assay; set-up: species or system Homo sapiens
[9] = Binding affinity to c-Src (unknown origin) assessed as inhibition constant by fluorescence based assay; set-up: species or system Homo sapiens
[10] = Inhibition of bovine pancrease trypsin by microplate reader analysis; set-up: species or system Bos taurus
D-amino-acid oxidase = D-amino-acid oxidase (Homo sapiens, UniProt P14920); assay: Binding affinity to human DAO assessed as inhibition constant
D-amino-acid oxidase, sequence (P14920 whole entry): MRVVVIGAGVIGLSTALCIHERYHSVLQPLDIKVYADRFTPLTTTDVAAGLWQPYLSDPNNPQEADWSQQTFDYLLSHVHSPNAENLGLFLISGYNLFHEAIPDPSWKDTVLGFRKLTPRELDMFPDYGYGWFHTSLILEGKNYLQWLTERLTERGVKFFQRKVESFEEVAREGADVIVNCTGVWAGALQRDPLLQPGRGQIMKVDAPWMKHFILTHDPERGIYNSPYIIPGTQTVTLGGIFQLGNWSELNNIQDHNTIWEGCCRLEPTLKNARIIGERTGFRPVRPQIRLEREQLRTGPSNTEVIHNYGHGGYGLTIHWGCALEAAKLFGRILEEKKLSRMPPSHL

Staphylococcus aureus = assay: Antibacterial activity against Staphylococcus aureus assessed as reduction in microbial growth by CLSI based broth microdilution method; type: functional
Escherichia coli = assay: Antibacterial activity against Escherichia coli assessed as reduction in microbial growth by CLSI based broth microdilution method; type: functional
EMT6 [11] = assay: Anticancer activity against mouse EMT6 cells assessed as reduction in cell viability at 100 uM incubated for 48 hrs by XTT assay relative to control; type: functional

N[C@H]1C[C@@H](N)[C@H](OCc2cnnn2CC(=O)c2ccc(-c3ccccn3)s2)C1
pKd [1]: 5.43

CC(=O)N[C@@H](CCCNC(=N)N)C(=O)N[C@@H](C)C(=O)N[C@H]1CCn2cc(nn2)C[C@@H](C(=O)O)NC(=O)[C@H](Cc2c[nH]cn2)NC(=O)[C@H](Cc2ccc3ccccc3c2)NC(=O)[C@H](CCCNC(=N)N)NC(=O)C1
pIC50 [2]: 7.74

CC(=O)N[C@@H](CCCNC(=N)N)C(=O)N[C@@H](C)C(=O)N[C@H]1CCn2nncc2C[C@@H](C(=O)O)NC(=O)[C@H](Cc2c[nH]cn2)NC(=O)[C@H](Cc2ccc3ccccc3c2)NC(=O)[C@H](CCCNC(=N)N)NC(=O)C1
pIC50 [2]: 7.66

Cn1c(=O)cc(OCc2cnnn2C2C[C@@H]3C[C@H]2[N+]3(C)C)c2ccccc21 (stereo partly specified)
pKd [3]: 7.01 | pKd [4]: 6.48 | pKd [5]: 8.79

CCC(=O)CCCCC[C@@H]1NC(=O)[C@@H](C(C)(C)C)n2cc(nn2)[C@H]([C@@H](C)CC)NC(=O)[C@H](Cc2c[nH]c3ccccc23)NC1=O
IC50 (Histone deacetylase): < 0.1 µM

CC1(C)CC[C@]2(C(=O)OCc3cn(-c4ccc(Cl)cc4)nn3)CC[C@]3(C)C(=CC[C@@H]4[C@@]5(C)CC[C@H](O)C(C)(C)[C@@H]5CC[C@]43C)[C@@H]2C1
pIC50 (EMT6 [6]): 4.04 | pIC50 (SW480): 4.12

CC(=O)OC[C@H]1O[C@@H](n2cc(CBr)nn2)[C@H](OC(C)=O)[C@@H](OC(C)=O)[C@@H]1OC(C)=O
EC50 (HeLa): 3.5 µg/mL (≈ 7.11 µM)

CC[C@H](C)[C@@H]1NC(=O)[C@@H]2CCCN2C(=O)[C@@H]2CCCN2C(=O)[C@H]([C@@H](C)CC)NC(=O)[C@H](CO)NC(=O)[C@H](CCCCN)NC(=O)[C@@H]([C@H](C)O)NC(=O)[C@@H](NC(=O)[C@H](CCCNC(=N)N)NC(=O)CN)CSSC[C@@H](C(=O)N[C@@H](Cc2ccccc2)C(=O)N2CCC[C@H]2C(=O)N[C@@H](CC(=O)O)C(=O)O)NC1=O
pKi [7]: 8.83

NC(=O)[C@@H]1C[C@H]2CCc3cnnn3CCOc3cccc(c3)C(=O)N1C2
pIC50 (A549): 4.38 | pIC50 (MDA-MB-231): 4.55 | pIC50 (HepG2): 4.46

Nc1ncnc2c1c(-c1ccc(Cl)cc1)nn2-c1cccc(-c2cnnn2Cc2ccccc2)c1
pKi [8]: < 3.90 | pKi [9]: 6.68

CC(=O)OC[C@H]1O[C@@H](n2cc(CI)nn2)[C@H](OC(C)=O)[C@@H](OC(C)=O)[C@@H]1OC(C)=O
EC50 (HeLa): 2 µg/mL (≈ 3.71 µM)

O=C(Nc1ccccc1)[C@@H]1C[C@H]2CCc3cnnn3CCOc3cccc(c3)C(=O)N1C2
pIC50 (A549): 4.33 | pIC50 (MDA-MB-231): 4.36 | pIC50 (HepG2): 4.44

Nc1ncnc2c1c(-c1ccc(Cl)cc1)nn2-c1cccc(-c2cnnn2Cc2cccc(-c3ccccc3)c2)c1
pKi [8]: < 3.90 | pKi [9]: 7.36

C#Cc1cccc(-n2nc(-c3ccc(Cl)cc3)c3c(N)ncnc32)c1
pKi [8]: 5.15 | pKi [9]: 5.84

CC[C@H](C)[C@@H]1NC(=O)[C@H](C)n2nncc2[C@@H]2CCCN2C(=O)[C@H]([C@@H](C)CC)NC(=O)[C@H](CO)NC(=O)[C@H](CCCCN)NC(=O)[C@H]([C@@H](C)O)NC(=O)[C@@H](NC(=O)[C@H](CCCNC(=N)N)NC(=O)CN)CSSC[C@@H](C(=O)N[C@@H](Cc2ccccc2)C(=O)N2CCC[C@H]2C(=O)N[C@@H](CC(=O)O)C(=O)O)NC1=O (HELM PEPTIDE1{G.R.C.T.K.S.I.[C[C@@H](C(=O)[*:2])n1nncc1[C@@H]1CCCN1[*:1]].I.C.F.P.D}$PEPTIDE1,PEPTIDE1,3:R3-10:R3$$$V2.0)
pKi [10]: 6.59

O=C(Cn1nncc1CO/N=C(/Cc1ccc(O)cc1)C(=O)O)N[C@@H](Cc1ccccc1)C(=O)O
pKi (D-amino-acid oxidase): 6.40

O=C(O)[C@@H]1C[C@H]2CCc3cnnn3CCOc3cccc(c3)C(=O)N1C2
pIC50 (A549): 4.43 | pIC50 (MDA-MB-231): 4.46 | pIC50 (HepG2): 4.35

N[C@H]1C[C@@H](N)[C@H](OCc2cnnn2CC(=O)c2ccc(-c3ccccc3)cc2)C1
pKd [1]: 5.48

CC1(C)CC[C@]2(C(=O)OCc3cn(-c4ccc(Br)cc4)nn3)CC[C@]3(C)C(=CC[C@@H]4[C@@]5(C)CC[C@H](O)C(C)(C)[C@@H]5CC[C@]43C)[C@@H]2C1
pIC50 (EMT6 [6]): 4.04 | pIC50 (SW480): 4.53

Cc1cccc(-n2nncc2COC(=O)[C@]23CCC(C)(C)C[C@H]2C2=CC[C@@H]4[C@@]5(C)CC[C@H](O)C(C)(C)[C@@H]5CC[C@@]4(C)[C@]2(C)CC3)c1
pIC50 (EMT6 [6]): 4.22

CC[C@H](C)[C@@H]1NC(=O)[C@H](CO)NC(=O)[C@H](CCCCN)NC(=O)[C@H]([C@@H](C)O)NC(=O)[C@@H](NC(=O)[C@H](CCCNC(=N)N)NC(=O)CN)CSSC[C@@H](C(=O)N[C@@H](Cc2ccccc2)C(=O)N2CCC[C@H]2C(=O)N[C@@H](CC(=O)O)C(=O)O)NC(=O)[C@H]([C@@H](C)CC)NC(=O)[C@@H]2CCCN2C(=O)[C@H](C)NC1=O (HELM PEPTIDE1{G.R.C.T.K.S.I.A.P.I.C.F.P.D}$PEPTIDE1,PEPTIDE1,3:R3-11:R3$$$V2.0)
pKi [10]: 6.75

CC[C@H](C)[C@@H]1NC(=O)[C@H](C)NC(=O)[C@@H]2CCCN2C(=O)[C@H]([C@@H](C)CC)NC(=O)[C@H](CO)NC(=O)[C@H](CCCCN)NC(=O)[C@H]([C@@H](C)O)NC(=O)[C@@H](NC(=O)[C@H](CCCNC(=N)N)NC(=O)CN)CSSC[C@@H](C(=O)N[C@@H](Cc2ccccc2)C(=O)N2CCC[C@H]2C(=O)N[C@@H](CC(=O)O)C(=O)O)NC1=O (HELM PEPTIDE1{G.R.C.T.K.S.I.P.A.I.C.F.P.D}$PEPTIDE1,PEPTIDE1,3:R3-11:R3$$$V2.0)
pKi [10]: 8.49

CC[C@H](C)[C@@H]1NC(=O)[C@@H]2CCCN2C(=O)[C@@H]2CCCN2C(=O)[C@H]([C@@H](C)CC)NC(=O)[C@H](CO)NC(=O)[C@H](CCCCN)NC(=O)[C@@H]([C@H](C)O)NC(=O)[C@@H](NC(=O)[C@H](CCCNC(=N)N)NC(=O)CN)CCn2nncc2C[C@@H](C(=O)N[C@@H](Cc2ccccc2)C(=O)N2CCC[C@H]2C(=O)N[C@@H](CC(=O)O)C(=O)O)NC1=O
pKi [7]: 8.62

CC(=O)OC[C@H]1O[C@@H](n2nncc2CBr)[C@H](OC(C)=O)[C@@H](OC(C)=O)[C@@H]1OC(C)=O
EC50 (HeLa): 4 µg/mL (≈ 8.13 µM)

CC[C@H](C)[C@@H]1NC(=O)[C@H](CO)NC(=O)[C@@H](CCCCN)NC(=O)[C@@H]([C@H](C)O)NC(=O)[C@@H](NC(=O)[C@H](CCCNC(=N)N)NC(=O)CN)CCn2cc(nn2)C[C@@H](C(=O)N[C@@H](Cc2ccccc2)C(=O)N2CCC[C@H]2C(=O)N[C@@H](CC(=O)O)C(=O)O)NC(=O)[C@@H]([C@@H](C)CC)NC(=O)[C@@H]2CCCN2C(=O)[C@@H]2CCCN2C1=O
pKi [7]: 5.72

N[C@H]1C[C@@H](N)[C@H](OCc2cnnn2CC(=O)c2ccc3ccccc3c2)C1
pKd [1]: 5.72

CC[C@H]1COC(=O)C[C@@H](O)[C@H](C)[C@@H](O[C@@H]2OC[C@@H](O)[C@H](N(C)C)[C@H]2O)[C@@H](CN(Cc2ccccc2)Cc2cnnn2-c2cnc3ccccc3c2)C[C@@H](C)C(=O)/C=C/C(C)=C/[C@@H]1CO
MIC (Staphylococcus aureus): 4 µg/mL | MIC (Escherichia coli): 464 µg/mL

CC(C)CNC(=O)[C@@H]1C[C@H]2CCc3cnnn3CCOc3cccc(c3)C(=O)N1C2
pIC50 (A549): 4.49 | pIC50 (MDA-MB-231): 4.36 | pIC50 (HepG2): 4.43

CC1(C)CC[C@]2(C(=O)OCc3cnnn3-c3ccc([N+](=O)[O-])cc3)CC[C@]3(C)C(=CC[C@@H]4[C@@]5(C)CC[C@H](O)C(C)(C)[C@@H]5CC[C@]43C)[C@@H]2C1
Activity (EMT6 [11]): 74% | pIC50 (EMT6 [6]): 4.13

[N-]=[N+]=NCC(=O)N[C@@H](Cc1ccccc1)C(=O)O
pKi (D-amino-acid oxidase): 9.00

Cn1c(=O)cc(OCc2cn(C3CC4CC3[N+]4(C)C)nn2)c2ccccc21 (stereo unspecified)
pKd [3]: 7.77 | pKd [4]: 7.62 | pKd [5]: 9.02

CC[C@H](C)[C@@H]1NC(=O)[C@@H]2CCCN2C(=O)[C@H](C)n2nncc2[C@H]([C@@H](C)CC)NC(=O)[C@H](CO)NC(=O)CNC(=O)[C@H]([C@@H](C)O)NC(=O)[C@@H](NC(=O)[C@H](CCCNC(=N)N)NC(=O)CN)CSSC[C@@H](C(=O)N[C@@H](Cc2ccccc2)C(=O)N2CCC[C@H]2C(=O)N[C@@H](CC(=O)O)C(=O)O)NC1=O (HELM PEPTIDE1{G.R.C.T.G.S.[CC[C@H](C)[C@H](N[*:1])c1cnnn1[C@@H](C)C(=O)[*:2]].P.I.C.F.P.D}$PEPTIDE1,PEPTIDE1,3:R3-10:R3$$$V2.0)
pKi [10]: 7.47
